Measurements as given in patent US8822517B2, “Arylosulfonamides for the treatment of CNS diseases” (Adamed SP. Z O.O., priority 2010, dated 2014).
Like-named read-outs stand apart in the source and are kept apart here.

Key:
[1] = molecular target: T1, serotonine transporter (SERT) receptor (Homo sapiens, UniProt P31645); test: Binding assay SERT (h), [3H]imipramine, CHO cells; conditions: read-out: SERT [%]
T1 construct: expressed in transfected cells; host or cells: CHO cells
Outline: (§1)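 At 1×10^−6 M, compounds were assessed for their effect on specific radioligand binding, computed as total less nonspecific binding (excess unlabelled ligand present).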

sigma σ receptor = test: Binding assay σ (non-selective), [3H]DTG, rat cerebral cortex; conditions: percent inhibition of control specific binding; compounds tested at 1×10^−6 M
Outline: as §1

adrenergic α1 receptor = test: Binding assay α1 (non-selective), [3H]prazosin, rat cerebral cortex; conditions: percent inhibition of control specific binding; compounds tested at 1×10^−6 M
Outline: as §1

dopaminergic D2 receptor [2] = molecular target: T2, dopaminergic D2 receptor (Homo sapiens, UniProt P14416); test: Cellular functional assay, dopaminergic D2 receptor (agonism/antagonism); assay type: cell-based
Method: (§2) The compounds were tested at the concentration of 1×10^−6M.
(§3) In the Tables ag refers to agonism, and antag to antagonism).
Target sequence in this assay (P14416 whole entry): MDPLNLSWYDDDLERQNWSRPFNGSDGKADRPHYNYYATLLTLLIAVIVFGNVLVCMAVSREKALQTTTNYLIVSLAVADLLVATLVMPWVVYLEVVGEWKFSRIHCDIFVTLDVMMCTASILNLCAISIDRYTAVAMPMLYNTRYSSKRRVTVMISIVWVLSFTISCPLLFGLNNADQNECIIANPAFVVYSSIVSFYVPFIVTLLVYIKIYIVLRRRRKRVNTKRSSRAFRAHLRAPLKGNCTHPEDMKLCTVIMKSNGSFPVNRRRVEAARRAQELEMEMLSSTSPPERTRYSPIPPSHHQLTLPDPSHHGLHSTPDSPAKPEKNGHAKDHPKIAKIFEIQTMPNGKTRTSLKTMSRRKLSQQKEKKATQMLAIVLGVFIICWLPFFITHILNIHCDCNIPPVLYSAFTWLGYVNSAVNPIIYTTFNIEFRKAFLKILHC

[3] = molecular target: T3, serotoninergic 5-HT1A receptor (Homo sapiens, UniProt P08908); test: Cellular functional assay, serotoninergic 5-HT1A receptor (agonism/antagonism); assay type: cell-based
T3 sequence (P08908 1-422): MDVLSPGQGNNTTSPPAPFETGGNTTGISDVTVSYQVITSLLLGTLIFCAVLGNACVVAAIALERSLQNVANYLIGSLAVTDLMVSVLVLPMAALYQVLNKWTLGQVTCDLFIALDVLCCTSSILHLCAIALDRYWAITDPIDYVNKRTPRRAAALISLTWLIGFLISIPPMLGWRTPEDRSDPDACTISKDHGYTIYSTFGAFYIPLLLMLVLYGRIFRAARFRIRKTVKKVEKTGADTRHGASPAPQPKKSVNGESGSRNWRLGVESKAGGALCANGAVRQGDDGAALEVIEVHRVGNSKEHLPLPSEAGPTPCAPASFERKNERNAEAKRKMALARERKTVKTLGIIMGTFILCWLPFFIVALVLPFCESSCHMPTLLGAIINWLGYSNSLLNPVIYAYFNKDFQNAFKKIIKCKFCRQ
Method: as §2, §3

[4] = molecular target: serotoninergic 5-HT7 receptor (Homo sapiens, UniProt P34969); test: Cellular functional assay, serotoninergic 5-HT7 receptor (agonism/antagonism); assay type: cell-based; conditions: for activation at 1 µM: read-out: 5-HT7-ag [%]; for inhibition at 1 µM: read-out: 5-HT7-antag. [%]
Method: as §2, §3

adrenergic α1A receptor = molecular target: T4, adrenergic α1A receptor (Homo sapiens, UniProt P35348); test: Cellular functional assay, adrenergic α1A receptor (agonism/antagonism); assay type: cell-based; conditions: for activation at 1 µM: read-out: α1A -ag [%]; for inhibition at 1 µM: read-out: α1A -antag. [%]
T4 sequence (P35348 1-466): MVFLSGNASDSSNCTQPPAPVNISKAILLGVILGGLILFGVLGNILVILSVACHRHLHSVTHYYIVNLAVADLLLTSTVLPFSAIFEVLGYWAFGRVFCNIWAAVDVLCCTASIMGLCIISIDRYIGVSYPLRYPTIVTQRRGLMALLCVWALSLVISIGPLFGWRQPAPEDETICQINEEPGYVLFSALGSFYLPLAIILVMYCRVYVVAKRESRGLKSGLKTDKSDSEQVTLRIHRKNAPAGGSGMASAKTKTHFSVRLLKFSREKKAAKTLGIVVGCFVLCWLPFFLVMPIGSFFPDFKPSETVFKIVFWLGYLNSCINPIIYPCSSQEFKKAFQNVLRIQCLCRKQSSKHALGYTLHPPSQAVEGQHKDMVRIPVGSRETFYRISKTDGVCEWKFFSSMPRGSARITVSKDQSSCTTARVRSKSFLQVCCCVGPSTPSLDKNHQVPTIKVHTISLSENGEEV
Outline: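 Human receptors tested in cell-based functional format for both agonist and antagonist modes. Single compound concentration of 1×10^−6M.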

[5] = molecular target: histaminergic H1 receptor (Homo sapiens, UniProt P35367); test: Cellular functional assay, histaminergic H1 receptor (agonism/antagonism); assay type: cell-based; conditions: for activation at 1 µM: read-out: H1 -ag [%]; for inhibition at 1 µM: read-out: H1 -antag. [%]
Method: as §2, §3

dopaminergic D2 receptor [6] = molecular target: T2, dopaminergic D2 receptor; test: Binding assay D2S (h), [3H]methyl-spiperone, HEK-293 cells; set-up: expressed in transfected cells; host or cells: HEK-293 cells; conditions: read-out: D2 [%]
Outline: as §1
Target sequence in this assay (P14416 1-414 isoform P14416-2): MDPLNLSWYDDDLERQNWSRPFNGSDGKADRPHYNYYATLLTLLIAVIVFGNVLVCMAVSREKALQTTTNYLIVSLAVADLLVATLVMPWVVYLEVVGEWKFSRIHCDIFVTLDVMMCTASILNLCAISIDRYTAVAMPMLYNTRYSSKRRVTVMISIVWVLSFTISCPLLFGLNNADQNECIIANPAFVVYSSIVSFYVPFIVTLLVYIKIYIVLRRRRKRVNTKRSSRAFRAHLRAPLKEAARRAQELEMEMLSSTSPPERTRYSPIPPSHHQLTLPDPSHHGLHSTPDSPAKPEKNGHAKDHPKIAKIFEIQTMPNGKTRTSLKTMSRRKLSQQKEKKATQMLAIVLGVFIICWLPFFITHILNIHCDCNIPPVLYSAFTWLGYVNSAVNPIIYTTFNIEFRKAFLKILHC

[7] = molecular target: T3, serotoninergic 5-HT1A receptor; test: Binding assay 5-HT1A (h), [3H]8-OH-DPAT, HEK-293 cells; set-up: expressed in transfected cells; host or cells: HEK-293 cells; conditions: read-out: 5-HT1A
Outline: as §1

[8] = molecular target: serotoninergic 5-HT2A receptor (Homo sapiens, UniProt P28223); test: Binding assay 5-HT2A (h), [3H]ketanserin, HEK-293 cells; set-up: expressed in transfected cells; host or cells: HEK-293 cells; conditions: read-out: 5-HT2A
Outline: as §1

[9] = HEK293; agonist effect, percent of control specific agonist response (3 μM dopamine for control); 1×10^−6 M; D2S (h), HEK-293 cells; read-out: D2-ag [%]
[10] = HEK293; read-out: D2-antag. [%]
[11] = CHO; read-out: 5-HT1A-antag. [%]
[12] = agonist effect, percent of control specific agonist response (100 nM 8-OH-DPAT for control); 1×10^−6 M; 5-HT1A (h), CHO cells; read-out: 5-HT1A-ag [%]
[13] = agonist effect, percent of control specific agonist response, compounds tested at 1×10^−6M

Chain of serotoninergic 5-HT7 receptor (P34969 whole entry): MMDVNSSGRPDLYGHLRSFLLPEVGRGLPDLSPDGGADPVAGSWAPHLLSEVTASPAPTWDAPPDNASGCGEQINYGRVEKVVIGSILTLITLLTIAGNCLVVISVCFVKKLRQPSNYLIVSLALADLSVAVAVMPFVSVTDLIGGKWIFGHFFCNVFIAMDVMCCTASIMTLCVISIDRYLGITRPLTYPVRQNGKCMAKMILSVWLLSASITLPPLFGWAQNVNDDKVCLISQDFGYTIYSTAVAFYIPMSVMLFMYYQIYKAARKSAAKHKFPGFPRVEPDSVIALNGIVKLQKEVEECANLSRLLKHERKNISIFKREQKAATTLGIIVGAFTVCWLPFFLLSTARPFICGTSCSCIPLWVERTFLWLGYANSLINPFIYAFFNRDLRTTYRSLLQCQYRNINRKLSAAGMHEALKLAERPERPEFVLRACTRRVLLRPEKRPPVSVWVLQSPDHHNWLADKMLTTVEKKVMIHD
T1 sequence (P31645 whole entry): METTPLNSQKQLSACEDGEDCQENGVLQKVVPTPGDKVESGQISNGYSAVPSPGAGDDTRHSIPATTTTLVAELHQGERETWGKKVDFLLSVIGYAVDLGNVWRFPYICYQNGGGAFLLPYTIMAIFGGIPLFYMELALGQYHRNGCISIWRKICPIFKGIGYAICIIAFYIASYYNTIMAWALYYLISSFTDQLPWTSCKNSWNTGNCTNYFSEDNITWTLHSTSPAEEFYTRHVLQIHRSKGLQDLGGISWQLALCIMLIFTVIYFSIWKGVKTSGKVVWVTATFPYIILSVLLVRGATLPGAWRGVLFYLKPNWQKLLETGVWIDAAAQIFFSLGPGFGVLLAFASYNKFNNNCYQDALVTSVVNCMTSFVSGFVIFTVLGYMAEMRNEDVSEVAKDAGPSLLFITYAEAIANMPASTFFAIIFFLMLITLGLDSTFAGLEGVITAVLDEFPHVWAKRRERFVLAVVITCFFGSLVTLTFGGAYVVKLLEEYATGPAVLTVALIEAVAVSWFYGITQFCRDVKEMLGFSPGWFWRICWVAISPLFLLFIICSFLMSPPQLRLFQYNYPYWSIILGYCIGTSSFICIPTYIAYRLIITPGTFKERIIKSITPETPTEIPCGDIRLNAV
Chain of serotoninergic 5-HT2A receptor (P28223 whole entry): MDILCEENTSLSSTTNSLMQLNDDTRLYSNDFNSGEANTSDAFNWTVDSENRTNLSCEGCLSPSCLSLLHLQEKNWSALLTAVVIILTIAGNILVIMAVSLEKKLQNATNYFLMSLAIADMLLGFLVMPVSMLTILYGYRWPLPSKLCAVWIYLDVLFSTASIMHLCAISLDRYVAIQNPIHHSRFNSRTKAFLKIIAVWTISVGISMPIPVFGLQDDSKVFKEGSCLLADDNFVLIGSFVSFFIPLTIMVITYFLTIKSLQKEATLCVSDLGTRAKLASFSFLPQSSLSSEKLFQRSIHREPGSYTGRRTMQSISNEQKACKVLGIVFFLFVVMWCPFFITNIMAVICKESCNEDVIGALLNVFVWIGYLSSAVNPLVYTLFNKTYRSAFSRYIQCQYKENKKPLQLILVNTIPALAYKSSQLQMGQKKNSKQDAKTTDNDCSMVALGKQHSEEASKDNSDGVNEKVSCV
Chain of histaminergic H1 receptor (P35367 whole entry): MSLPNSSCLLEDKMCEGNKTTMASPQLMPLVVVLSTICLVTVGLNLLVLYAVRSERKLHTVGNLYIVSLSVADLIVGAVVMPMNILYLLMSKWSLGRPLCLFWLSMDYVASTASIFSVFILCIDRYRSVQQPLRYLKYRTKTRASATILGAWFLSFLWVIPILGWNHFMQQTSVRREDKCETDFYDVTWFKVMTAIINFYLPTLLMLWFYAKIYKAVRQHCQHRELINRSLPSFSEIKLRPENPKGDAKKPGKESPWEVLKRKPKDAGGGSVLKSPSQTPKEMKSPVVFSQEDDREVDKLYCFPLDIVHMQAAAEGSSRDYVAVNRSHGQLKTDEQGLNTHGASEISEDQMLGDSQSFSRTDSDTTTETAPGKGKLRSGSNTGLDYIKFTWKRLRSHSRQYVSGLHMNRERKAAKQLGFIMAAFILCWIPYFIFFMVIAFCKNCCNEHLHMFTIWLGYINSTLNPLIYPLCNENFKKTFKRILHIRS

| SMILES | inhibition at 1 µM [1] | σ [%] (sigma σ receptor) | α1 [%] (adrenergic α1 receptor) | inhibition at 1 µM [4] | inhibition at 1 µM (adrenergic α1A receptor) | inhibition at 1 µM [5] | inhibition at 1 µM (dopaminergic D2 receptor [6]) | inhibition at 1 µM [7] | inhibition at 1 µM [8] | activation at 1 µM (dopaminergic D2 receptor [2]; [9]) | inhibition at 1 µM (dopaminergic D2 receptor [2]; [10]) | inhibition at 1 µM [3, 11] | activation at 1 µM [3, 12] | activation at 1 µM [4, 13] | activation at 1 µM (adrenergic α1A receptor; [13]) | activation at 1 µM [5, 13] | other results |
| --- | --- | --- | --- | --- | --- | --- | --- | --- | --- | --- | --- | --- | --- | --- | --- | --- | --- |
| O=S(=O)(NCCCCN1CCN(c2nsc3ccccc23)CC1)c1ccc2ccccc2c1 [Compound 2, N-(4-(4-(1,2-Benzothiazol-3-yl)piperazin-1-yl)butyl)naphthalene-2-sulphonamide] | 69% | 65% | 97% | 80% | 100% | 48% | 98% | 99% | 100% |  |  |  |  |  |  |  | activation at 1 µM (dopaminergic D2 receptor [2]; HEK293, read-out: D2-ag [%]): 2%; inhibition at 1 µM (dopaminergic D2 receptor [2]; HEK293, read-out: D2-antag. [%]): 97%; activation at 1 µM ([3]; CHO, read-out: 5-HT1A-ag [%]): 47%; inhibition at 1 µM ([3]; CHO, read-out: 5-HT1A-antag. [%]): 18%; activation at 1 µM [4]: -1%; activation at 1 µM (adrenergic α1A receptor): 0%; activation at 1 µM [5]: -1% |
| Cc1cccc(S(=O)(=O)NCCCN2CCN(c3nsc4ccccc34)CC2)c1 [Compound 7, N-(3-(4-(1,2-Benzothiazol-3-yl)piperazin-1-yl)propyl)-3-methylbenzenesulphonamide] | 88% | 61% | 98% | 98% | 100% | 70% | 95% | 99% | 100% | 0% | 91% | 51% | 59% | -1% | 0% | 1% |  |
| O=c1[nH]c2ccc(S(=O)(=O)NCCCN3CCN(c4nsc5ccccc45)CC3)cc2o1 [Compound 8, N-(3-(4-(1,2-Benzothiazol-3-yl)piperazin-1-yl)propyl)-2-oxo-3H-1,3-benzoxazole-6-sulphonamide] | 63% | 17% | 94% | 82% | 100% | 98% | 98% | 100% | 100% | 7% | 85% | 81% | 14% | -1% | 0% | 1% |  |
| O=S(=O)(NCCCCN1CCN(c2nsc3ccccc23)CC1)c1ccc2cc(Cl)ccc2c1 [Compound 61, N-[4-[4-(1,2-Benzothiazol-3-yl)piperazin-1-yl]butyl]-6-chloro-naphthalene-2-sulphonamide] | 55% | 46% | 94% | 78% | 100% | 76% | 100% | 94% | 100% | 4% | 77% | 20% | 75% | -1% | 0% | 1% |  |
| Cc1c(S(=O)(=O)NCCCCN2CCN(c3nsc4ccccc34)CC2)sc2ccc(F)cc12 [Compound 65, N-[4-[4-(1,2-Benzothiazol-3-yl)piperazin-1-yl]butyl]-5-fluoro-3-methylbenzothiophene-2-sulphonamide] | 57% | 62% | 95% | 91% | 98% | 60% | 99% | 100% | 101% | 10% | 74% | 35% | 9% | -2% | 0% | 0% |  |
| Cc1c(S(=O)(=O)NCCCCN2CCN(c3noc4ccccc34)CC2)sc2ccc(F)cc12 [Compound 81, N-[4-[4-(1,2-Benzoxazol-3-yl)piperazin-1-yl]butyl]-5-fluoro-3-methylbenzothiophene-2-sulphonamide] | 28% | 59% | 96% | 98% | 100% | 38% | 90% | 92% | 101% | 4% | 73% | 22% | 5% | -2% | 1% | 1% |  |
| O=S(=O)(NCCCCN1CCC(c2noc3cc(F)ccc23)CC1)c1ccc2cc(Cl)ccc2c1 [Compound 97, 6-Chloro-N-[4-[4-(6-fluoro-1,2-benzoxazol-3-yl)piperidin-1-yl]butyl]naphthalene-2-sulphonamide] | 61% | 55% | 98% | 100% | 99% | 57% | 100% | 75% | 100% | 4% | 95% | 38% | 13% | -2% | 0% | 3% |  |
| Cc1c(S(=O)(=O)NCCCN2CCC(c3noc4cc(F)ccc34)CC2)sc2ccc(F)cc12 [Compound 102, 5-Fluoro-N-[3-[4-(6-fluoro-1,2-benzoxazol-3-yl)piperidin-1-yl]propyl]-3-methylbenzothiophene-2-sulphonamide] | 38% | 74% | 99% | 94% | 100% | 48% | 100% | 92% | 101% | 1% | 85% | 35% | 1% | -2% | 0% | 0% |  |
| O=S(=O)(NCCCCN1CCN(c2nsc3ccccc23)CC1)c1cc2ccccc2s1 [Compound 239, N-[4-[4-(1,2-Benzothiazol-3-yl)piperazin-1-yl]butyl]benzothiophene-2-sulphonamide] | 64% | 69% | 99% | 81% | 100% | 54% | 102% | 98% | 101% | 13% | 84% | 58% | 7% | -2% | -1% | 0% |  |
